This note sets out measurements from patent US20110076318A1, “RETINOID-CONTAINING SUSTAINED RELEASE INTRAOCULAR IMPLANTS AND RELATED MATTERS” (Allergan, Inc., priority 2004, published 2011).

Values after ≈ are worked out from the molar mass of the structure shown. Where two headings read alike, the source gives them in different places.

One series concerns photoreceptors. Kind of series: Rhodopsin mutant transgenic rat models of retinal degeneration. It is filed as in vivo, Transgenic S334ter rats. Conditions: i.p., S334ter line 3 and line 4. On the procedure:
The objective of this study was to determine the efficacy of various retinoids in preventing retinal damage or improving retinal survival in rhodopsin mutant transgenic rat models of retinal degeneration. The overall goal of the research was to investigate potential photoreceptor survival in mutant rhodopsin transgenic rats using RAR α, RAR β γ, and RXR retinoid agonists.
The experimental design was straightforward. A compound was injected daily to line 3 and every two days for line 4 animals (i.p.) for a given period and animals were sacrificed at the end by CO2 overdose followed immediately by vascular perfusion of mixed aldehydes. Two litters of rats were used:
1. Transgenic S334ter-3 rats. Line 3 bears a rhodopsin mutation S334ter. […] Injection of a compound will be given daily from PD 6 (post-delivery day 6) to PD 20.
2. Transgenic S334ter-4 rats. Line 4 bears a rhodopsin mutation S334ter. Animals of this line experience a 80% loss of photoreceptors by 60 days after birth. The ONL is reduced to one row of nuclei. Injection of a compound will be given every other day from PD 25 to PD 60.
For the line 3 animals, treatment started at PD 6 and the endpoint was PD 20. For the line 4, injection began at PD 25 and ended at PD60 when eyes were harvested. Eyes were embedded in an Epon/Araldite mixture for sectioning at 1 μm thickness along the vertical meridian. Protection of photoreceptors was be evaluated by counting the rows of nuclei in the outer nuclear layer.
The outcome was a measure of retinal outer layer thickness, and cytology over an 8 week period. Compounds included the retinoid agonists tazarotene (RAR β γ), AGN 195183 (RAR α) and AGN 194204 (RXR). […] This is a fairly harsh model and as such the modest improvement by tazarotene is quite significant.

Series [1] can be described thus: Measured lipophilicity of tazarotene. In kind it is physicochemical.
Series [2] in a line: Intraocular pharmacokinetics after single intravitreal injection of Tazarotene. In kind it is in vivo, female New Zealand White rabbits. The conditions noted are these: rabbit; for concentration at 2 hr / concentration at 24 hr / half-life: female, New Zealand White; for concentration at 2 hr / concentration at 24 hr: other: intravitreal injection; for concentration at 2 hr: 2 hr post dose; for concentration at 24 hr: 24 hr post dose; for half-life: topical or ocular. As for the experimental part: The intraocular pharmacokinetics of Tazarotene was assessed in female New Zealand White rabbits following a single intravitreal injection. The rabbits were dosed with bilateral intravitreal injections of Tazarotene (1250 ng in 50 μL). At 0.5, 1, 2, 4, 8, 12, and 24 hr post dose, animals were sacrificed and the aqueous humor, vitreous humor, and retina samples were analyzed. […] The Tazarotene concentration in the retina was close to its vitreal concentration at all time points, declining from 859±131 ng/g at 2 hr post dose to 93.1±28.9 ng/g by 24 hr post dose. […] It was shown that Tazarotene has a relatively long intravitreal half-life and that the retinal concentration parallel the vitreous when given as a neat injection. However, despite a very low solubility the clearance of Tazarotene from the retina is fast enough to require sustained release for extended duration of action.

Series [3] concerns PVR induced by human RPE cells. Put plainly: PVR model with retinoid implants, Fastenberg scale. It is filed as in vivo. From the text:
PLA and PLGA implants 1.5 mm in diameter and 3 mm in length were fabricated by extrusion of the polymer drug blend. Tazarotenic acid (the free acid of Tazarotene) Tazarotene and 13-cis-retinoic acid were loaded into the implants at 10% concentrations. Briefly, pigmented rabbits were vitrectomized followed by intravitreal injection of 500,000 human RPE cells. After injection of the RPE cells the retinoid implants were placed into the vitreous and anchored to the sclera with the suture used to close the sclerotomy.
The eyes were examined weekly for 4 weeks. Severity of PVR was graded based on the Fastenberg scale. At 4 weeks gross pathology and limited histopathology were conducted.

The test system of series [4] is retinal function and structure. Kind of series: Blue light retinal degeneration model. In kind it is in vivo, Sprague dawley rats. Conditions: daily oral doses for five days before 12000 lux blue light, eight hours. As for the experimental part: AGN 194310, AGN 194204, tazarotene and AGN 199852 were evaluated in the blue light retinal degeneration model. Sprague dawley rats were pretreated for five days with daily oral doses of the retinoids. The rats were then exposed to high intensity light, 12000 lux blue fluorescent, for eight hours. Five days post exposure the retinal function was assessed by full flash ERG and structure by outer nuclear layer thickness.

Series [5] in a line: Plasma concentrations after topical and oral dosing of tazarotene. In kind it is in vivo, patients. The conditions noted are these: for Cmax: human, po, read-out: TAZAROTENE Cmax. On the procedure: […] For the most part tazarotene is not observed in the plasma after topical or oral administration. Facile hydrolysis by pre-systemic metabolism rapidly generates the free acid. […] It is important to note that these are plasma concentrations and the eye plasma distribution ratio is 0.02. Over 90% of all patients in the phase 3 clinical trials had concentrations of the parent compound, tazarotene, <1 ng/mL with the highest being 6 ng/mL.
Oral delivery of 1.1 mg and 6 mg multiple doses led to 28.9 ng/mL and 227 ng/ml peak levels with a 2.56 ng/mL trough. This corresponds to a maximum possible 4 ng/mL ocular level for the highest dose. FIG. 11 depicts the tissue distribution of tazarotenic acid. The eyes show a 2% tissue/plasma ration in the rat. It should be noted that tazarotenic acid is 99% protein bound and distribution is limited to unbound drug.

The nature of the next series: Solubility of tazarotene. It is filed as physicochemical. As for the experimental part:
This was due to the extremely low solubility of Tazarotene in 0.9% saline, which was determined to be less than 1 μg/mL. Therefore, it was difficult to see any differences in the release profiles of different formulations. Work began to search for a release medium that would differentiate the release profiles of all formulations.

[6] abbreviates: retina, 1250 ng, read-out: Tazarotene concentration in the retina.
The mark [7] stands for this setting: vitreous humor, 1250 ng intravitreal, read-out: Tazarotene concentration in the vitreous humor.

As for `CCOC(=O)c1ccc(C#Cc2ccc3c(c2)C(C)(C)CCS3)nc1` [Tazarotene, Ethyl 6-[(4,4-dimethylthiochroman-6-yl)ethynyl]nicotinate], the “protection of photoreceptors (outer nuclear layer)” value in the series with photoreceptors is “only compound to show efficacy”. Also, in series [1], the logP (usually the decadic logarithm of the partition coefficient of the neutral form, usually between octanol and water) stood at 4.3. In addition, in series [1] (pH 7.4, value marked measured in Table 3, read-out: log D pH 7.4 (measured)), the logD was determined as 4.3. For the same compound, the values for the concentration at 2 hr in series [2] (setting [6]) and in series [2] (setting [7]) were 859 ± 131 ng/g and 578 ± 77 ng/g, respectively. The results for the concentration at 24 hr in series [2] (setting [6]) and in series [2] (setting [7]) were 93.1 ± 28.9 ng/g and 115 ± 33 ng/g, respectively. Further, the half-life in series [2] (retina, 1250 ng, read-out: mean t1/2 of elimination from the retina (converted)) is 7.63 h; in series [2] (vitreous humor, 1250 ng, read-out: mean half-life (t1/2) in vitreous humor (converted)) it was 9.22 h. Further, the “mean vitreal clearance (Cl)” value in series [2] (in vivo) was 0.123 mL/h. Further, the vitreal clearance in series [2] (in vivo) is listed as 2.95 mL/day. Moreover, the “safety by gross pathology and limited histopathology” value in series [3] (at 4 weeks) is “good safety profile”. The “eyes progressed to traction retinal detachment” value in series [3] (at 28 days, 10% loaded PLA/PLGA implants, intravitreal) was found to be 12%. Moreover, in series [4], the “protection of retinal function (ERG) and structure (outer nuclear layer thickness)” value is “significantly protect both retinal function and structure”. Besides, the highest concentration (Cmax) (as a rule, the peak of the concentration-time curve) was less than 0.1 ng/mL in series [5] (plasma, 1.1 mg/Day, plasma, Oral 1.1 mg/Day, in 95%); less than 0.1 ng/mL in series [5] (plasma, 3 mg/Day, plasma, Oral 3.0 mg/Day); less than 0.1 ng/mL in series [5] (plasma, 6 mg/Day, plasma, Oral 6.0 mg/Day). Moreover, the “highest plasma concentration of tazarotene in phase 3 clinical trials” value in series [5] (in vivo) is reported as 6 ng/mL. The “plasma concentration of tazarotene in phase 3 clinical trials” value in series [5] (over 90% of all patients) is less than 1 ng/mL. Further, the “TAZAROTENE Cmax” value in series [5] (plasma, Topical Gel 0.1%, for >90%) is recorded as “BLQ for >90%”. Also, the solubility (usually the concentration that dissolves in the medium under given conditions) is less than 1 µg/mL in the series “Solubility of tazarotene” (0.9% saline, saline or isotonic, read-out: solubility in 0.9% saline) and 1 µg/mL (≈ 2.85 µM) in “Solubility of tazarotene” (water, read-out: solubility in water).
